Measured values taken from ChEMBL document CHEMBL1137230, “Structure-based exploration of cyclic dipeptide chitinase inhibitors” (2004).

Assays:
Saccharomyces cerevisiae [1] = experiment: Cell aggregates after mild sonication of compound with Saccharomyces cerevisiae strains as measure of chitinase inhibitory activity; type: functional
Saccharomyces cerevisiae [2] = experiment: Cell aggregates after incubation of compound with Saccharomyces cerevisiae strains as measure of chitinase inhibitory activity; type: functional

Row | SMILES | Cell aggregates (Saccharomyces cerevisiae [1]) | Cell aggregates (Saccharomyces cerevisiae [2])
1 | O=C1N[C@@H](Cc2cnc[nH]2)C(=O)N2CCC[C@@H]12 | 32.7 | 90
2 | O=C1N[C@@H](Cc2ccc(O)cc2)C(=O)N2CCC[C@@H]12 | 33.9 | 77.5
3 | O=C1NCC(=O)N2CCC[C@@H]12 [CYCLO(PROLYLGLYCYL)] | 33.2 | 75.7
